Test results: US8431577B2, “Crystalline form of eszopiclone, composition, preparation and uses thereof” (Tianjin Tasly Group Co., Ltd., priority 2008, dated 2013)

How the values were obtained:
[1] = Pharmacokinetic study of single oral administration in healthy volunteers; format: in vivo, human
Method: Evaluation of pharmacokinetics: according to the results of phase I clinical tolerance trial and the pre-designed therapeutic dose of phase II clinical trial, a high dose of 11. 25 mg/kg BW (body weight) can be tolerated by all volunteers in tolerance test, three different dose groups had been set as follows: low dose group, moderate dose group and high dose group were 3, 6 and 12 mg/kg BW, respectively. Three-way crossover Latin square design was used. All subjects were randomly divided into 3 test groups, and the tested drug at different doses was administrated to the subjects when performing each test. Thus, after 3 tests, each subject had been administrated with the testing drug at high, moderate and low dose by following the Latin square design procedure. The interval between two tests was 2 weeks.
(§1) After a single oral administration of the tested drug, 6 ml anticoagulant heparin venous blood samples were collected at 0th (immediately before administration), 15th minute, 30th minute, 45th minute, 60th minute, 1.5th hour, 2nd hour, 3rd hour, 4th hour, 6th hour, 8th hour, 12th hour, 16th hour and 24th hour respectively to determine the concentration of S-zopiclone. By HPLC, the plasma drug concentration of each subject had been determined at different time-points to give a concentration-time curve. The main pharmacokinetic parameters of the subjects had been calculated, including AUC, Cmax, Tmax, AUC0˜α, AUC0-t and t1/2, etc.
(§2) The crystalline form of S-zopiclone was prepared into coated tablets (3 mg S-zopiclone/tablet) in accordance with Example 1 and Example 9, single orally administrated.
(§3) Pharmacokinetic indices: the plasma drug concentration had been determined immediately before administration and at different time-points after administration of the drug to give a concentration-time curve. The main pharmacokinetic parameters had been calculated, including Cmax, Tmax, AUC0˜α, AUC0-t and t1/2, etc.
(§4) Pharmacokinetic: 3P97 statistical analysis software had been applied to calculate the main pharmacokinetic parameters.

[2] = Safety after single oral administration in healthy volunteers; format: in vivo, human
Method: Safety indices: a series of indices were measured when conducting screening and 24 hours after administration, including vital signs, physical examination, ECG and laboratory test. During the test, adverse event was recorded on time.
Safety: meaningful clinical safety indices are tabulated according to the type and the frequency thereof.
Bitter taste in mouth was reported as severe adverse reaction by a majority of subjects (25%˜40%), and another adverse reaction was dizziness and headache. […] Two subjects in the group of the dose of 12 mg/kg BW experienced the state of delirium, including talkativeness, hyperactivity and unconsciousness. […] Within 12 hours after administration, all adverse reactions disappeared without special treatment.

[3] = Pharmacokinetic study pre and post eating in healthy volunteers; format: in vivo, human; conditions: single oral
Method: In addition, the effect of eating food on in vivo metabolism of the drug had been evaluated. 8 subjects were randomly divided into 2 groups. In 2 tests, the subjects of each group received the drug at the same dose (6 mg) in the cases of fasting and 5 minutes after taking standard diet. The interval between two tests was 2 weeks.
as §1, §2, §3, §4

[4] = Solubility test (Chinese Pharmacopoeia 2000 general notice); format: physicochemical; conditions: 25±2° C.
Method: Solubility test had been carried out by common solvents in accordance with the method of the GENERAL NOTICE in Chinese Pharmacopoeia (2000 Edition).
Test method: an appropriate amount of fine powder of the crystalline form of S-zopiclone was weighed accurately, into which a certain amount of solvent was added with an accuracy of ±2%. At a temperature of 25±2° C., the solution was shaken violently for 30 seconds, which is repeated at 5-minute intervals. The solubility behavior within 30 minutes had been observed.

[5] = 3 mg single oral administration
[6] = 6 mg single oral administration
[7] = 12 mg single oral administration
[8] = 6 mg (eating), 5 minutes after standard diet

## CN1CCN(C(=O)O[C@H]2c3nccnc3C(=O)N2c2ccc(Cl)cn2)CC1 [crystalline form of S-zopiclone, (+)-(S)-(4-methylpiperazine-1-carboxylate)(6-(5-chloropyridinyl-2-yl)-7-carbonyl-6,7-dihydro-5-H-pyrrolo[3,4-b]pyrazin-5-yl ester)]
[1]; [5]
  AUC0-∞: 259.66 ± 92.58 µg/h/L
  Cmax: 33.96 ± 8.63 µg/L
  Tmax: 1.50 ± 0.66 h
  plasma clearance: 14.10 ± 4.5 L/h
  t1/2: 6.98 ± 0.99 h
[1]; [6]
  AUC0-∞: 404.21 ± 73.32 µg/h/L
  Cmax: 60.94 ± 11.44 µg/L
  Tmax: 1.28 ± 0.43 h
  plasma clearance: 15.80 ± 3.0 L/h
  t1/2: 8.20 ± 6.14 h
[1]; [7]
  AUC0-∞: 1291.26 ± 426.68 µg/h/L
  Cmax: 182.72 ± 67.44 µg/L
  Tmax: 1.58 ± 0.40 h
  plasma clearance: 10.90 ± 5.00 L/h
  t1/2: 8.06 ± 2.82 h
[2]; 12 mg dose group
  subjects experiencing the state of delirium (talkativeness, hyperactivity, unconsciousness): Two subjects
[2]; high dose group (12 mg)
  types and frequencies of adverse reactions versus low and moderate dose groups: more types and higher frequencies of adverse reactions
[2]; without special treatment
  time after administration within which all adverse reactions disappeared: ≤ 12 h
[3]; [8]
  AUC0-∞: 284.00 ± 88.36 µg/h/L
  Cmax: 62.60 ± 18.95 µg/L
  Tmax: 1.75 ± 0.89 h
  plasma clearance: 21.4 ± 7.4 L/h
  t1/2: 6.75 ± 1.49 h
[3]; 6 mg (fasting)
  AUC0-∞: 335.73 ± 145.57 µg/h/L
  Cmax: 60.69 ± 11.43 µg/L
  Tmax: 1.31 ± 0.44 h
  plasma clearance: 16.00 ± 3.3 L/h
  t1/2: 7.17 ± 2.69 h
[4]; acetone, 10 mg sample
  Required amount of the solvent: 2.0 mL
[4]; acetone
  Required amount of the solvent for dissolving 1 g of the sample: 200 mL
  Solubility: slightly soluble
[4]; anhydrous ether, 10 mg sample
  Required amount of the solvent: 90.0 mL
[4]; anhydrous ether
  Required amount of the solvent for dissolving 1 g of the sample: 9000 mL
  Solubility: very slightly soluble
[4]; chloroform, 100 mg sample
  Required amount of the solvent: 0.6 mL
[4]; chloroform
  Required amount of the solvent for dissolving 1 g of the sample: 6 mL
  Solubility: freely soluble
[4]; ethanol, 10 mg sample
  Required amount of the solvent: 15.0 mL
[4]; ethanol
  Required amount of the solvent for dissolving 1 g of the sample: 1500 mL
  Solubility: very slightly soluble
[4]; ethyl acetate, 10 mg sample
  Required amount of the solvent: 6.0 mL
[4]; ethyl acetate
  Required amount of the solvent for dissolving 1 g of the sample: 600 mL
  Solubility: slightly soluble
[4]; hydrochloric acid (0.1 mol/L), 10 mg sample
  Required amount of the solvent: 0.7 mL
[4]; hydrochloric acid (0.1 mol/L)
  Required amount of the solvent for dissolving 1 g of the sample: 70 mL
  Solubility: Soluble
[4]; methanol, 10 mg sample
  Required amount of the solvent: 5.0 mL
[4]; methanol
  Required amount of the solvent for dissolving 1 g of the sample: 500 mL
  Solubility: slightly soluble
[4]; water, 10 mg sample
  Required amount of the solvent: 200 mL
[4]; water
  Required amount of the solvent for dissolving 1 g of the sample: 20000 mL
  Solubility: practically insoluble
